What was measured:
[1] = molecular target: T1, Steroid 17-alpha-hydroxylase/17,20 lyase (Homo sapiens, UniProt P05093); assay: Binding affinity to C-terminal 6-His-tagged human CYP17A1 expressed in Escherichia coli assessed as induction of type II binding spectral changes at 50 uM using 1 uM CYP17A1 by spectroscopy
T1 sequence (P05093 whole entry): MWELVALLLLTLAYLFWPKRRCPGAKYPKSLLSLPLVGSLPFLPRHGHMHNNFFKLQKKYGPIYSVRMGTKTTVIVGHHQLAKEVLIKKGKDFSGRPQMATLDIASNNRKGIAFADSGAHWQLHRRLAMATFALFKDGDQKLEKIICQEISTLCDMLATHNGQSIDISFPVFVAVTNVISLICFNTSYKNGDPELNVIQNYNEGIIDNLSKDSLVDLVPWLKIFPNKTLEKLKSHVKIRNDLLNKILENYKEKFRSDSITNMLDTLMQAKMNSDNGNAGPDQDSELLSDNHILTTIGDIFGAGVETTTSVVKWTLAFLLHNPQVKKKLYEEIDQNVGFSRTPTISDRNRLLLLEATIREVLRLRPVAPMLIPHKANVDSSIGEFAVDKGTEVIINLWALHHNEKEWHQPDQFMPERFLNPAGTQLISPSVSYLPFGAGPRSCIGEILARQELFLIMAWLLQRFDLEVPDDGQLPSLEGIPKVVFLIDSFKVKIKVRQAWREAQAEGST

[2] = molecular target: T1, Steroid 17-alpha-hydroxylase/17,20 lyase; assay: Binding affinity to C-terminal 6-His-tagged human CYP17A1 expressed in Escherichia coli assessed as induction of spectral changes by measuring rate constant of first reaction at 20 uM using 2 uM CYP17A1 by spectroscopy
[3] = molecular target: T1, Steroid 17-alpha-hydroxylase/17,20 lyase; assay: Binding affinity to C-terminal 6-His-tagged human CYP17A1 expressed in Escherichia coli assessed as induction of spectral changes by measuring rate constant of second reaction at 20 uM using 2 uM CYP17A1 by spectroscopy

In the case of `CC(C)[C@](O)(c1ccc2cc(OC(F)F)c(OC(F)F)cc2c1)c1c[nH]nn1` [SEVITERONEL], the Activity [1] is reported as “Active”, the K [2] is reported as 44 to 45 s⁻¹ and the K [3] is reported as 1.9 s⁻¹.
